Structures can show the parent of a compound that is named as a salt. Where two headings read alike, the source gives them in different places.
Test system: HT29
Settings: 72 h, 10 µM
Outline: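 HT29 viability used WST-1 reduction (2 h, 37 °C, A450) after 72 h of treatment; screening compounds were tested singly at 10 µM, with dimethyl sulfoxide as the comparison.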

SMILES	Relative cell viability (%) (relative to DMSO) [%]	other results
c1ccc(-c2ccc(C(c3ccccc3)n3ccnc3)cc2)cc1 (centres unmarked) [Bifonazole]	88.14	–
COc1ccccc1N1CCN(CC(O)COc2cccc3ccccc23)CC1 (centres unmarked) [Naftopidil]	100.8	–
CNCC[C@H](Oc1cccc2ccccc12)c1cccs1 [Duloxetine HCl]	99.61	–
CN(C)CCC=C1c2ccccc2C=Cc2ccccc21 [Cyclobenzaprine HCl]	39.39	–
CC(/C=C1\SC(=S)N(CC(=O)O)C1=O)=C\c1ccccc1 [Epalrestat]	135.7	–
CCn1cc(C(=O)O)c(=O)c2ccc(C)nc21 [Nalidixic acid]	106.7	–
COc1cc2nc(N3CCN(C(=O)C4COc5ccccc5O4)CC3)nc(N)c2cc1OC (centres unmarked) [Doxazosin Mesylate]	63.4	–
N#CC1(c2ccc(NC(=O)c3cccnc3NCc3ccncc3)cc2)CCCC1 [Apatinib]	110.8	–
CCc1cc(/C(C)=N/OCc2ccc(C3CCCCC3)c(C(F)(F)F)c2)ccc1CN1CC(C(=O)O)C1 [BAF312 (Siponimod)]	107.265	–
O=c1[nH]c(=O)n(C2CCCO2)cc1F (centres unmarked) [FT-207 (NSC 148958)]	74.3	–
N[C@@H](Cc1cc(I)c(Oc2cc(I)c(O)c(I)c2)c(I)c1)C(=O)O [L-Thyroxine]	67.96	–
CCC1(c2ccccc2)C(=O)NCNC1=O [Primidone]	178.2	–
CC[C@H]1OC(=O)[C@H](C)[C@@H](O[C@H]2C[C@@](C)(OC)[C@@H](O)[C@H](C)O2)[C@H](C)[C@@H](O[C@@H]2O[C@H](C)C[C@H](N(C)C)[C@H]2O)[C@](C)(O)C[C@@H](C)CN(C)[C@H](C)[C@@H](O)[C@]1(C)O [Azithromycin]	33.47	–
C[C@H](CS)C(=O)N1CCC[C@H]1C(=O)O [Captopril]	243.5	–
CC(=O)Oc1cccc2c1C(=O)c1c(OC(C)=O)cc(C(=O)O)cc1C2=O [Diacerein]	73.94	–
NC(=O)c1ncn([C@@H]2O[C@H](CO)[C@@H](O)[C@H]2O)c1N [Acadesine]	105.9	–
COc1cc(C(=O)O)ccc1NC(=O)[C@@H]1N[C@@H](CC(C)(C)C)[C@](C#N)(c2ccc(Cl)cc2F)[C@H]1c1cccc(Cl)c1F [Idasanutlin (RG-7388)]	98.29	–
CC(C)C(=O)Oc1ccc(CO)cc1[C@H](CCN(C(C)C)C(C)C)c1ccccc1 [Fesoterodine Fumarate]	112.6	–
CN(C)CCC(c1ccc(Cl)cc1)c1ccccn1 (centres unmarked) [Chlorpheniramine Maleate]	102.1	–
Cc1ccc(Cl)c(Nc2ccccc2C(=O)O)c1Cl [Meclofenamate Sodium]	83.03	–
O[C@@H]1CO[C@H]2[C@@H]1OC[C@@H]2O [Isosorbide]	83.94	–
CC[C@H]1[C@@H](O)[C@@H]2[C@H](CC[C@]3(C)[C@@H]([C@H](C)CCC(=O)O)CC[C@@H]23)[C@@]2(C)CC[C@@H](O)C[C@@H]12 [Obeticholic Acid]	111.1	–
CCC(=O)NCC[C@@H]1CCc2ccc3c(c21)CCO3 [Ramelteon]	64.95	–
Cc1ccc(-n2nccn2)c(C(=O)N2CCN(c3nc4cc(Cl)ccc4o3)CC[C@H]2C)c1 [Suvorexant (MK-4305)]	90.6	–

SMILES	Relative cell viability (%) (relative to DMSO) [%]	other results
CN1C[C@@H]2c3ccccc3Oc3ccc(Cl)cc3[C@H]2C1 (racemic) [Asenapine]	50.93	–
O=C(O)CCCN1CCC(O[C@@H](c2ccc(Cl)cc2)c2ccccn2)CC1 [Bepotastine Besilate]	89.81	–
NC12CC3CC(CC(C3)C1)C2 [Amantadine HCl]	105.5	–
O=C1NC(=O)[C@@H](c2cn3c4c(cccc24)CCC3)[C@@H]1c1c[nH]c2ccccc12 [Tivantinib (ARQ 197)]	27.18	–
NC(=O)[C@@H]1CCCN1C(=O)[C@H](Cc1cnc[nH]1)NC(=O)[C@@H]1CCC(=O)N1 [Protirelin]	76.5	–
CCCCOc1ccc(C(=O)CCN2CCCCC2)cc1 [Dyclonine HCl]	155.2	–
Cc1ncc([N+](=O)[O-])n1CCO [Metronidazole]	113.4	–
NC(=O)c1cccnc1 [Nicotinamide (Vitamin B3)]	113.7	–
CC(CN1c2ccccc2Sc2ccccc21)N(C)C (centres unmarked) [Promethazine HCl]	62.12	–
O=C(Nc1nc2cccc(-c3ccc(CN4CCS(=O)(=O)CC4)cc3)n2n1)C1CC1 [Filgotinib (GLPG0634)]	–	Relative cell viability (%) (ht29 cells): 50.85%
Cc1c(Nc2ncccc2C(=O)O)cccc1C(F)(F)F [Flunixin Meglumin]	128.5	–
COc1cc2c(cc1OC)[C@H]1CC(=O)[C@H](CC(C)C)CN1CC2 (racemic) [Tetrabenazine (Xenazine)]	97.03	–
NC(CO)(CO)CO [Trometamol]	73.94	–
Cc1cccc(CN2CCN(C(c3ccccc3)c3ccc(Cl)cc3)CC2)c1 (centres unmarked) [Meclizine 2HCl]	130.4	–
Cc1cccc(C)c1OCC(=O)N[C@@H](Cc1ccccc1)[C@@H](O)C[C@H](Cc1ccccc1)NC(=O)[C@H](C(C)C)N1CCCNC1=O [Lopinavir]	55.61	–
C[C@@H]1COC(Nc2ccc3ncnc(Nc4ccc(OCc5nccs5)c(Cl)c4)c3c2)=N1 [Varlitinib]	111.6	–
CC(C)[C@H]1C(=O)N[C@@H](CCCN=C(N)N)C(=O)NCC(=O)N[C@@H](CC(=O)O)C(=O)N[C@H](Cc2ccccc2)C(=O)N1C [Cilengitide]	61.11	–
CCn1c(=O)c(-c2cc[nH]n2)cc2c(C)nc(N)nc21 [Voxtalisib (XL765, SAR245409)]	31.62	–
CC(C)(C)c1nc(-c2cccc(NS(=O)(=O)c3c(F)cccc3F)c2F)c(-c2ccnc(N)n2)s1 [Dabrafenib (GSK2118436)]	37.38	–
Nc1nc(F)nc2c1ncn2[C@@H]1O[C@H](COP(=O)(O)O)[C@@H](O)[C@@H]1O [Fludarabine Phosphate]	52.49	–
C=CC(=O)N1CCC[C@@H](n2nc(-c3ccc(Oc4ccccc4)cc3)c3c(N)ncnc32)C1 [Ibrutinib (PCI-32765)]	53.4	–
CN/C(=N/CCSCc1nc[nH]c1C)NC#N [Cimetidine]	97.03	–
CC1=NN(c2ccccc2)C(=O)C1 [Edaravone]	97.66	–
CN1CCN(c2ccc3nc(-c4c(N)c5c(F)cccc5[nH]c4=O)[nH]c3c2)CC1 [Dovitinib (TKI258) Lactate]	–	Relative cell viability (%) (relative to DMSO, Relative cell viability (%)): 3.419%

SMILES	Relative cell viability (%) (relative to DMSO) [%]	other results
CNC[C@H](O)[C@@H](O)[C@H](O)[C@H](O)CO [Meglumine]	172.9	–
CCNC1(C(N)=O)CCN(c2ncnc3c2nc(-c2ccccc2Cl)n3-c2ccc(Cl)cc2)CC1 [Otenabant (CP-945598) HCl]	70.09	–
C[N+](C)(C)CCO [Choline Chloride]	79.39	–
Fc1ccc(C(c2ccc(F)cc2)N2CCN(C/C=C/c3ccccc3)CC2)cc1 [Flunarizine 2HCl]	73.29	–
CCCCCCCCCCCC[N+](C)(C)CCOc1ccccc1 [Domiphen Bromide]	82.12	–
COc1cc([C@H]2Oc3cc([C@H]4Oc5cc(O)cc(O)c5C(=O)[C@@H]4O)ccc3O[C@@H]2CO)ccc1O [Silibinin]	119.6	–
C=CC[C@@H]1/C=C(\C)C[C@H](C)C[C@H](OC)[C@H]2O[C@@](O)(C(=O)C(=O)N3CCCC[C@H]3C(=O)O[C@H](/C(C)=C/[C@@H]3CC[C@@H](O)[C@H](OC)C3)[C@H](C)[C@@H](O)CC1=O)[C@H](C)C[C@@H]2OC [Tacrolimus (FK506)]	102.1	–
CC[C@H](C)C(=O)O[C@H]1CCC=C2C=C[C@H](C)[C@H](CC[C@@H]3C[C@@H](O)CC(=O)O3)[C@H]21 [Mevastatin]	86.67	–
CN1CCc2nc(C(=O)N[C@@H]3C[C@@H](C(=O)N(C)C)CC[C@@H]3NC(=O)C(=O)Nc3ccc(Cl)cn3)sc2C1 [Edoxaban]	95.73	–
O=C(O)CCc1nc(-c2ccccc2)c(-c2ccccc2)o1 [Oxaprozin]	63.03	–
COC(=O)C1=C(C#N)NC(C)=C(C(=O)OC(C)C)C1c1cccc([N+](=O)[O-])c1 (centres unmarked) [Nilvadipine]	81.07	–
O=C(O)c1cccnc1 [Nicotinic Acid]	70.34	–
O=C(NCCO[N+](=O)[O-])c1cccnc1 [Nicorandil]	198.8	–
CCOc1ccc2nc3cc(N)ccc3c(N)c2c1 [Ethacridine lactate monohydrate]	39.39	–
CCOc1nc2cccc(C(=O)OCc3oc(=O)oc3C)c2n1Cc1ccc(-c2ccccc2-c2noc(=O)[nH]2)cc1 [Azilsartan Medoxomil]	116	–
[H]/N=C(\N/C(=N/[H])NCCCCCCNC(=N)NC(=N)Nc1ccc(Cl)cc1)Nc1ccc(Cl)cc1 [Chlorhexidine HCl]	28.64	–
CNC(=O)c1ccc(N2C(=S)N(c3ccc(C#N)c(C(F)(F)F)c3)C(=O)C2(C)C)cc1F [Enzalutamide (MDV3100)]	86.76	–
OCCOCCN1CCN(C2=Nc3ccccc3Sc3ccccc32)CC1 [Quetiapine Fumarate]	47.46	–
C#C[C@]1(O)C=C[C@H]2[C@@H]3CCC4=CC(=O)CC[C@@H]4[C@H]3CC[C@@]21CC [Gestodene]	69.63	–
CCOC(=O)c1ncn2c1CN(C)C(=O)c1cc(F)ccc1-2 [Flumazenil]	80.53	–
COc1ccccc1N1CCN(CCCNc2cc(=O)n(C)c(=O)n2C)CC1 [Urapidil HCl]	222.9	–
CCN(CC)CCOC(=O)C(c1ccccc1)c1ccccc1 [Adiphenine HCl]	119.6	–
CC(C)(C)C(=O)C(Oc1ccc(Cl)cc1)n1ccnc1 (centres unmarked) [Climbazole]	83.94	–

Source: article PMC11672294, “The Antipsychotic Drug Aripiprazole Suppresses Colorectal Cancer by Targeting LAMP2a to Induce RNH1/miR‐99a/mTOR‐Mediated Autophagy and Apoptosis” (Advanced Science, 2024)
